The numbers were not newly measured in patent US4296101A, “Antibiotic kristenin” (E. R. Squibb & Sons, Inc., priority 1978, dated 1981), which cites them from elsewhere.

The subject of this series is gram positive bacteria. The settings on record: stated by Okazaki et al., Journal of Antibiotics, Vol. 28, No. 9, pages 717-719.

For `CCC(N)C(O)C(O)C(C)C(=O)NC(CC(C)C)C1Cc2cccc(O)c2C(=O)O1` (stereo not shown) [baciphelacin], the “active against gram positive bacteria” value is “active against gram positive bacteria”.
